Legend:
[1] = test system: Puccinia recondita f. sp. tritici; assay: Example A1: Puccinia recondita f. sp. tritici / wheat / leaf disc preventative (brown rust); assay type: in vivo; conditions: foliar, 200 ppm in the applied formulation, wheat leaf segments, compared to untreated control leaf disks, read-out: disease control
Method: (§1) Leaf disks or leaf segments of various plant species are cut from plants grown in a greenhouse. The cut leaf disks or segments are placed in multiwell plates (24-well format) onto water agar. The leaf disks are sprayed with a test solution before (preventative) or after (curative) inoculation. Compounds to be tested are prepared as DMSO solutions (max. 10 mg/ml) which are diluted to the appropriate concentration with 0.025% Tween20 just before spraying. The inoculated leaf disks or segments are incubated under defined conditions (temperature, relative humidity, light, etc.) according to the respective test system. A single evaluation of disease level is carried out 3 to 14 days after inoculation, depending on the pathosystem. Percent disease control relative to the untreated check leaf disks or segments is then calculated.
Wheat leaf segments cv. Kanzler were placed on agar in multiwell plates (24-well format) and sprayed with the formulated test compound diluted in water. […] The inoculated leaf segments were incubated at 19° C. and 75% relative humidity (rh) under a light regime of 12 hours light/12 hours darkness in a climate cabinet and the activity of a compound was assessed as percent disease control compared to untreated when an appropriate level of disease damage appears in untreated check leaf segments (7 to 9 days after application). […]

[2] = test system: Puccinia recondita f. sp. tritici; assay: Example A2: Puccinia recondita f. sp. tritici / wheat / leaf disc curative (brown rust); assay type: in vivo; conditions: foliar, 200 ppm in the applied formulation, wheat leaf segments, compared to untreated control leaf disks, read-out: disease control
Method: as §1
Wheat leaf segments cv. Kanzler are placed on agar in multiwell plates (24-well format). The leaf segments are then inoculated with a spore suspension of the fungus. […] The leaf segments were incubated at 19° C. and 75% relative humidity under a light regime of 12 hours light/12 hours darkness in a climate cabinet and the activity of a compound was assessed as percent disease control compared to untreated when an appropriate level of disease damage appears in untreated check leaf segments (6 to 8 days after application). […]

Phakopsora pachyrhizi = assay: Example A3: Phakopsora pachyrhizi / soybean / leaf disc preventative (Asian soybean rust); assay type: in vivo; conditions: foliar, 200 ppm in the applied formulation, soybean leaf disks, compared to untreated control leaf disks, read-out: disease control
Method: as §1
Soybean leaf disks are placed on water agar in multiwell plates (24-well format) and sprayed with the formulated test compound diluted in water. One day after application leaf discs are inoculated by spraying a spore suspension on the lower leaf surface. […] The activity of a compound is assessed as percent disease control compared to untreated when an appropriate level of disease damage appears in untreated check leaf disks (12 to 14 days after application). […]

[3] = test system: Glomerella lagenarium (Colletotrichum lagenarium); assay: Example A4: Glomerella lagenarium (Colletotrichum lagenarium) liquid culture / cucumber / preventative (anthracnose); assay type: cell-based; conditions: Colletotrichum orbiculare, 20 ppm in the applied formulation, compared to untreated control, read-out: disease control
Method: Mycelia fragments or conidia suspensions of a fungus prepared either freshly from liquid cultures of the fungus or from cryogenic storage, are directly mixed into nutrient broth. DMSO solutions of the test compound (max. 10 mg/ml) are diluted with 0.025% Tween20 by a factor of 50 and 10 μl of this solution is pipetted into a microtiter plate (96-well format). The nutrient broth containing the fungal spores/mycelia fragments is then added to give an end concentration of the tested compound. The test plates are incubated in the dark at 24° C. and 96% relative humidity. The inhibition of fungal growth is determined photometrically after 2 to 7 days, depending on the pathosystem, and percent antifungal activity relative to the untreated check is calculated.
Conidia of the fungus from cryogenic storage are directly mixed into nutrient broth (PDB—potato dextrose broth). After placing a (DMSO) solution of test compound into a microtiter plate (96-well format), the nutrient broth containing the fungal spores is added.
The following compounds at 20 ppm in the applied formulation give at least 80% disease control in this test when compared to untreated control under the same conditions, which show extensive disease development.

In the case of `COCC(=O)N(Cc1ccc(-c2noc(C(F)(F)F)n2)cc1)CC(F)(F)F` [X.09, 2-methoxy-N-(2,2,2-trifluoroethyl)-N-[[4-[5-(trifluoromethyl)-1,2,4-oxadiazol-3-yl]phenyl]methyl]acetamide], the melting point is reported as 92.6 to 94.3 °C.

`CON(Cc1ccc(-c2noc(C(F)(F)F)n2)cc1)C(=O)NC1CC1` [X.15, 3-cyclopropyl-1-methoxy-1-[[4-[5-(trifluoromethyl)-1,2,4-oxadiazol-3-yl]phenyl]methyl]urea] gave a melting point of 84 to 87 °C.

In the case of `CCONC(=O)N(Cc1ccc(-c2noc(C(F)(F)F)n2)cc1)OC` [X.16, 3-ethoxy-1-methoxy-1-[[4-[5-(trifluoromethyl)-1,2,4-oxadiazol-3-yl]phenyl]methyl]urea], the melting point is reported as 107 to 110 °C.

For `C=CCNC(=O)N(Cc1ccc(-c2noc(C(F)(F)F)n2)cc1)OC` [X.17, 3-allyl-1-methoxy-1-[[4-[5-(trifluoromethyl)-1,2,4-oxadiazol-3-yl]phenyl]methyl]urea], the melting point was 64 to 70 °C.

With `CON(Cc1ccc(-c2noc(C(F)(F)F)n2)cc1)C(=O)NC(C)C` [X.19, 3-isopropyl-1-methoxy-1-[[4-[5-(trifluoromethyl)-1,2,4-oxadiazol-3-yl]phenyl]methyl]urea] the melting point was 106 to 107.3 °C.

Compound `C#CCNC(=O)N(Cc1ccc(-c2noc(C(F)(F)F)n2)cc1)OC` [X.20, 1-methoxy-3-prop-2-ynyl-1-[[4-[5-(trifluoromethyl)-1,2,4-oxadiazol-3-yl]phenyl]methyl]urea] has a melting point of 88.9 to 90.6 °C.

With `CN(Cc1ccc(-c2noc(C(F)(F)F)n2)cc1)C(=O)NCC1CC1` [X.22, 3-(cyclopropylmethyl)-1-methyl-1-[[4-[5-(trifluoromethyl)-1,2,4-oxadiazol-3-yl]phenyl]methyl]urea] the pest or weed control at 200 ppm [1] was ≥ 80%, the pest or weed control at 200 ppm [2] was ≥ 80% and the pest or weed control at 200 ppm (Phakopsora pachyrhizi) was ≥ 80%. The inhibition of growth at 20 ppm [3] was ≥ 80%.

In the case of `CCN(Cc1ccc(-c2noc(C(F)(F)F)n2)cc1)C(=O)NCC(F)(F)F` [X.23, 1-ethyl-3-(2,2,2-trifluoroethyl)-1-[[4-[5-(trifluoromethyl)-1,2,4-oxadiazol-3-yl]phenyl]methyl]urea], the pest or weed control at 200 ppm [1] is reported as ≥ 80%, the pest or weed control at 200 ppm [2] is reported as ≥ 80% and the pest or weed control at 200 ppm (Phakopsora pachyrhizi) is reported as ≥ 80%. For the same compound, the inhibition of growth at 20 ppm [3] was ≥ 80%.
